# Results: patent US20100204295A1, “TREATMENT OF ALLERGIC DISEASE WITH IMMUNOMODULATOR COMPOUNDS” (SCICLONE PHARMACEUTICALS, INC., priority 2007, published 2010)
# Key:
# [1] = tested on: RBCs and protein in the BAL; assay: Lung injury / microvascular permeability: RBCs and total protein in BAL, guinea pig model; format: in vivo, Dunkin-Hartley guinea pigs
# Protocol: Animals were sensitized on day 0 ip with 50 mg/kg OVA. On Days 17, 18, 19, and 20, animals received an ip injection between 8 and 10 am with PBS, SCV-07 at 1 ug/kg, or SCV-07 at 10 ug/kg (Peptide treatment). Between 8 and 10 a.m. on Day 21, animals were administered peptide 2 hours before OVA or saline (NSS) aerosol challenge. 30 min before OVA or NSS aerosol challenge each animal was injected ip with an antihistamine (6.1 mg/kg pyrilamine maleate) to prevent death due to the anaphylactic response that accompanies aerosol OVA challenge. Animals were exposed to aerosol in pairs with either 1% OVA solution or NSS for 5 min in a plexiglass chamber (22×22×29 cm) using a DeVilbiss Model 35B Ultrasonic Nebulizer. Animals were observed during the total 5 min aerosolization and comments recorded. Within 22-24 hours after challenge, animals were euthanized, bled by cardiac puncture, lavaged and lung lobes removed for measurement of cellular infiltration. At the time of OVA or NSS challenge and euthanasia, animal weights ranged from approximately 350-550 g, with the average weight approximately 420 g. This experimental protocol is similar to that used in previously published studies (Regal and Fraser, 1996; Regal et al., 2000). […] Total white blood cells in BAL were counted by standard methods in a hemacytometer using Turk's solution. […] Four hundred cells were counted and identified as eosinophils, neutrophils, or mononuclear cells. […] EPO activity from the homogenized lung after lavage was expressed as total OD/min from the left caudal lobe. MPO activity from the homogenized lung after lavage was expressed as total units of enzyme activity from the right caudal lobe. […] OD412 of the BAL supernatant was also determined to estimate the number of RBCS that were lysed during the lavage procedure and prior to re-suspension of the cells for counting. […] Lung injury and/or changes in microvascular permeability were assessed by determining the RBCs in the BAL (FIG. 7A-B) as well as the overall protein content of the BAL fluid (FIG. 7C). […]
# OVA specific IgG1 = OVA specific IgG1 in serum by ELISA, guinea pig model; format: in vivo, Dunkin-Hartley guinea pigs; conditions: 1 or 10 ug/kg ip days 17-21
# Protocol: Animals were sensitized on day 0 ip with 50 mg/kg OVA. On Days 17, 18, 19, and 20, animals received an ip injection between 8 and 10 am with PBS, SCV-07 at 1 ug/kg, or SCV-07 at 10 ug/kg (Peptide treatment). Between 8 and 10 a.m. on Day 21, animals were administered peptide 2 hours before OVA or saline (NSS) aerosol challenge. 30 min before OVA or NSS aerosol challenge each animal was injected ip with an antihistamine (6.1 mg/kg pyrilamine maleate) to prevent death due to the anaphylactic response that accompanies aerosol OVA challenge. Animals were exposed to aerosol in pairs with either 1% OVA solution or NSS for 5 min in a plexiglass chamber (22×22×29 cm) using a DeVilbiss Model 35B Ultrasonic Nebulizer. Animals were observed during the total 5 min aerosolization and comments recorded. Within 22-24 hours after challenge, animals were euthanized, bled by cardiac puncture, lavaged and lung lobes removed for measurement of cellular infiltration. At the time of OVA or NSS challenge and euthanasia, animal weights ranged from approximately 350-550 g, with the average weight approximately 420 g. […]
# OVA specific IgG1 in serum was determined by ELISA as previously described (Fraser et al., 1998; Regal et al., 2000). The data were expressed as the concentration of OVA specific IgG1 in the sample divided by the concentration of OVA specific IgG1 in the standard, defined as 1. […]
# bone marrow cells = conditions: cited from earlier work
structure (smiles),measurement,setting,value
"N[C@H](CCC(=O)N[C@@H](Cc1c[nH]c2ccccc12)C(=O)O)C(=O)O [SCV-07, γ-D-glutamyl-L-tryptophan]",OD412 of the BAL supernatant,[1]; change from NSS to OVA,significantly reduced
same,"Number of RBCs in the BAL (OD412 of lysed cell pellet), change from NSS to OVA",[1]; either 1 or 10 ug/kg,significantly attenuated
same,Total protein in the BAL fluid,"[1]; guinea pig, in vivo",not affected
same,Concentration of OVA specific IgG1 antibody in the serum,OVA specific IgG1,did not significantly affect
same,Expression of Thy-1.2 on bone marrow cells,bone marrow cells,stimulates expression
